System: MV-4-11 cells
Experiment: Gene expression microarray analysis (Affymetrix PrimeView) and GSEA
Format: cell-based, human
Parameters: RFU PODN (11730768_x_at) / Fold change /veh PODN (11730768_x_at) / RFU LINC00158 (11744669_a_at) / Fold change /veh LINC00158 (11744669_a_at) / RFU DUSP10 (11751237_a_at) / Fold change /veh DUSP10 (11751237_a_at) / RFU ID3 (11757404_x_at) / Fold change /veh ID3 (11757404_x_at) / RFU PLEKHG5 (11737974_s_at) / Fold change /veh PLEKHG5 (11737974_s_at) / RFU LRRC4B (11730491_at) / Fold change /veh LRRC4B (11730491_at) / RFU GIMAP4 (11747438_a_at) / Fold change /veh GIMAP4 (11747438_a_at) / RFU KRT8 (11758183_x_at) / Fold change /veh KRT8 (11758183_x_at) / RFU CNN1 (11734310_a_at) / Fold change /veh CNN1 (11734310_a_at) / RFU VPS37D (11726825_at) / Fold change /veh VPS37D (11726825_at) / RFU C10orf10 (11716522_x_at) / Fold change /veh C10orf10 (11716522_x_at) / RFU KIR2DL2 /// KIR2DL4 /// KIR2DL5A /// KIR2DL5B /// KIR2DS1 /// KIR2DS2 /// KIR2DS3 /// KIR2DS4 /// KIR3DL3 /// KIR3DL3 /// KIR3DS1 (11738374_at) / Fold change /veh KIR2DL2 /// KIR2DL4 /// KIR2DL5A /// KIR2DL5B /// KIR2DS1 /// KIR2DS2 /// KIR2DS3 /// KIR2DS4 /// KIR3DL3 /// KIR3DL3 /// KIR3DS1 (11738374_at) / RFU C1QL1 (11718748_at) / Fold change /veh C1QL1 (11718748_at) / RFU TMPRSS4 (11747572_a_at) / Fold change /veh TMPRSS4 (11747572_a_at) / RFU HAMP (11756126_x_at) / Fold change /veh HAMP (11756126_x_at) / RFU RNFT2 (11725882_a_at) / Fold change /veh RNFT2 (11725882_a_at) / RFU NR4A2 (11747474_a_at) / Fold change /veh NR4A2 (11747474_a_at) / RFU ABCC12 (11746883_a_at) / Fold change /veh ABCC12 (11746883_a_at) / RFU TMEM136 (11760407_x_at) / Fold change /veh TMEM136 (11760407_x_at) / RFU CLDN22 /// WWC2 (11732394_at) / Fold change /veh CLDN22 /// WWC2 (11732394_at) / RFU HLA-DPB1 (11760878_x_at) / Fold change /veh HLA-DPB1 (11760878_x_at) / RFU SPINT1 (11716480_a_at) / Fold change /veh SPINT1 (11716480_a_at) / RFU GAP43 (11754022_s_at) / Fold change /veh GAP43 (11754022_s_at) / RFU A4GNT (11735810_at) / Fold change /veh A4GNT (11735810_at) / RFU PRB3 (11715151_x_at) / Fold change /veh PRB3 (11715151_x_at) / RFU TUBB4B (11761932_at) / Fold change /veh TUBB4B (11761932_at) / RFU CAPN14 (11732068_a_at) / Fold change /veh CAPN14 (11732068_a_at) / RFU TMCC2 (11721928_a_at) / Fold change /veh TMCC2 (11721928_a_at) / RFU IRGQ (11745062_a_at) / Fold change /veh IRGQ (11745062_a_at) / RFU FAM174B (11720279_a_at) / Fold change /veh FAM174B (11720279_a_at) / RFU TMPRSS4 (11748680_a_at) / Fold change /veh TMPRSS4 (11748680_a_at) / RFU FAM212B (11763350_a_at) / Fold change /veh FAM212B (11763350_a_at) / RFU PLEKHG5 (11743358_a_at) / Fold change /veh PLEKHG5 (11743358_a_at) / RFU ZSCAN30 (11745921_a_at) / Fold change /veh ZSCAN30 (11745921_a_at) / RFU CMKLR1 (11741424_a_at) / Fold change /veh CMKLR1 (11741424_a_at) / RFU LOC101060620 /// MAPK8IP1 (11723275_at) / Fold change /veh LOC101060620 /// MAPK8IP1 (11723275_at) / RFU SPTSSB (11747773_x_at) / Fold change /veh SPTSSB (11747773_x_at) / RFU PRSS12 (11739890_at) / Fold change /veh PRSS12 (11739890_at) / RFU BIN1 (11741810_x_at) / Fold change /veh BIN1 (11741810_x_at) / RFU WNT11 (11732464_a_at) / Fold change /veh WNT11 (11732464_a_at) / RFU C10orf10 (11716521_a_at) / Fold change /veh C10orf10 (11716521_a_at) / RFU C5orf56 (11738089_at) / Fold change /veh C5orf56 (11738089_at) / RFU CYB561 (11721691_x_at) / Fold change /veh CYB561 (11721691_x_at) / RFU ANKRD19P (11752326_a_at) / Fold change /veh ANKRD19P (11752326_a_at) / RFU OR2T12 /// OR2T33 /// OR2T8 (11738714_s_at) / Fold change /veh OR2T12 /// OR2T33 /// OR2T8 (11738714_s_at) / RFU VCAN (11748164_a_at) / Fold change /veh VCAN (11748164_a_at) / RFU JSRP1 (11732532_at) / Fold change /veh JSRP1 (11732532_at) / RFU KRTAP10-11 (11738290_x_at) / Fold change /veh KRTAP10-11 (11738290_x_at) / RFU MYO3A (11730013_a_at) / Fold change /veh MYO3A (11730013_a_at) / RFU EBF3 (11725865_a_at) / Fold change /veh EBF3 (11725865_a_at) / RFU CAMK2N1 (11719241_x_at) / Fold change /veh CAMK2N1 (11719241_x_at) / RFU C5orf56 (11738088_a_at) / Fold change /veh C5orf56 (11738088_a_at) / RFU OLFML3 (11715873_a_at) / Fold change /veh OLFML3 (11715873_a_at) / RFU LOC100653217 /// NTM (11731650_a_at) / Fold change /veh LOC100653217 /// NTM (11731650_a_at) / RFU MAPK11 (11762145_a_at) / Fold change /veh MAPK11 (11762145_a_at) / RFU FIZ1 (11724087_x_at) / Fold change /veh FIZ1 (11724087_x_at) / RFU OASL (11726364_x_at) / Fold change /veh OASL (11726364_x_at) / RFU SOX15 (11748057_x_at) / Fold change /veh SOX15 (11748057_x_at) / RFU CD79A (11719716_a_at) / Fold change /veh CD79A (11719716_a_at) / RFU HIST1H1D (11736915_at) / Fold change /veh HIST1H1D (11736915_at) / RFU CASKIN2 (11723855_a_at) / Fold change /veh CASKIN2 (11723855_a_at) / RFU LOC730098 (11760151_x_at) / Fold change /veh LOC730098 (11760151_x_at) / RFU OR4N2 (11742367_at) / Fold change /veh OR4N2 (11742367_at) / RFU PRRT2 (11749266_a_at) / Fold change /veh PRRT2 (11749266_a_at) / RFU SNX32 (11753110_a_at) / Fold change /veh SNX32 (11753110_a_at) / RFU CDHR5 (11726645_a_at) / Fold change /veh CDHR5 (11726645_a_at) / RFU RCAN1 (11760418_a_at) / Fold change /veh RCAN1 (11760418_a_at) / RFU FAM167A (11723789_a_at) / Fold change /veh FAM167A (11723789_a_at) / RFU FAM26E (11764081_at) / Fold change /veh FAM26E (11764081_at) / RFU ISYNA1 (11749810_s_at) / Fold change /veh ISYNA1 (11749810_s_at) / RFU ACY1 (11761880_at) / Fold change /veh ACY1 (11761880_at) / RFU 11764098_at / Fold change /veh 11764098_at / RFU SAMD14 (11745864_x_at) / Fold change /veh SAMD14 (11745864_x_at) / RFU NPB (11741838_a_at) / Fold change /veh NPB (11741838_a_at) / RFU TMPRSS6 (11731388_a_at) / Fold change /veh TMPRSS6 (11731388_a_at) / RFU KRTAP10-2 (11738614_at) / Fold change /veh KRTAP10-2 (11738614_at) / RFU ARHGAP8 /// PRR5-ARHGAP8 (11727945_x_at) / Fold change /veh ARHGAP8 /// PRR5-ARHGAP8 (11727945_x_at) / RFU KRTAP5-7 /// NADSYN1 (11734609_at) / Fold change /veh KRTAP5-7 /// NADSYN1 (11734609_at) / RFU RASL12 (11751679_a_at) / Fold change /veh RASL12 (11751679_a_at) / RFU CDKN2B (11736163_a_at) / Fold change /veh CDKN2B (11736163_a_at) / RFU PRF1 (11729649_at) / Fold change /veh PRF1 (11729649_at) / RFU, ZNF638 /// ZNF638-IT1 / Fold change vs veh, ZNF638 /// ZNF638-IT1 / RFU, PANK3 / Fold change vs veh, PANK3 / RFU, SH3YL1 / Fold change vs veh, SH3YL1 / RFU, ZEB2 / Fold change vs veh, ZEB2 / RFU, NRIP1 / Fold change vs veh, NRIP1 / RFU, PTTG1IP / Fold change vs veh, PTTG1IP / RFU, CAPN2 / Fold change vs veh, CAPN2 / RFU, MED14 / Fold change vs veh, MED14 / RFU, SNORA58 / Fold change vs veh, SNORA58 / RFU, C1orf63 / Fold change vs veh, C1orf63 / RFU, LRRFIP1 / Fold change vs veh, LRRFIP1 / RFU, NDUFAF7 / Fold change vs veh, NDUFAF7 / RFU, SLC12A2 / Fold change vs veh, SLC12A2 / RFU, IBTK / Fold change vs veh, IBTK / RFU, ESF1 / Fold change vs veh, ESF1 / Fold change vs veh, TMEM50B / RFU, TAOK1 / Fold change vs veh, TAOK1 / RFU, ACBD3 / Fold change vs veh, ACBD3 / RFU, TMA16 / Fold change vs veh, TMA16 / RFU, RWDD3 / Fold change vs veh, RWDD3 / RFU, BCAT1 / Fold change vs veh, BCAT1 / RFU, EDEM3 / Fold change vs veh, EDEM3 / RFU, TMEM33 / Fold change vs veh, TMEM33 / RFU, WDR75 / Fold change vs veh, WDR75 / RFU, AHCTF1 / Fold change vs veh, AHCTF1 / RFU, TFRC / Fold change vs veh, TFRC / RFU, ZDHHC17 / Fold change vs veh, ZDHHC17 / RFU, NOM1 / Fold change vs veh, NOM1 / RFU, ARL8B / Fold change vs veh, ARL8B / RFU, ZBTB11 / Fold change vs veh, ZBTB11 / RFU, TAMM41 / Fold change vs veh, TAMM41 / RFU, KIAA1704 /// LOC100996395 / Fold change vs veh, KIAA1704 /// LOC100996395 / RFU, ING1 / Fold change vs veh, ING1 / RFU, TRMT61B / Fold change vs veh, TRMT61B / RFU, FUBP3 / Fold change vs veh, FUBP3 / RFU, TP53 / Fold change vs veh, TP53 / RFU, TNKS2 / Fold change vs veh, TNKS2 / RFU, ZFP14 / Fold change vs veh, ZFP14 / RFU, ACTR2 / Fold change vs veh, ACTR2 / RFU, PPP3R1 / Fold change vs veh, PPP3R1 / RFU, PIK3R1 / Fold change vs veh, PIK3R1 / RFU, HNRNPA1 / Fold change vs veh, HNRNPA1 / RFU, RNF170 / Fold change vs veh, RNF170 / RFU, ZNF28 / Fold change vs veh, ZNF28 / RFU, RNGTT / Fold change vs veh, RNGTT / RFU, OGT / Fold change vs veh, OGT / RFU, BRD1 / Fold change vs veh, BRD1 / RFU, MARS / Fold change vs veh, MARS / RFU, ZNF655 / Fold change vs veh, ZNF655 / RFU, FAHD1 / Fold change vs veh, FAHD1 / RFU, BDP1 / Fold change vs veh, BDP1 / RFU, LRRCC1 / Fold change vs veh, LRRCC1 / RFU, ARID1A / Fold change vs veh, ARID1A / RFU, ZNF146 / Fold change vs veh, ZNF146 / RFU, ZNF330 / Fold change vs veh, ZNF330 / RFU, GPN3 / Fold change vs veh, GPN3 / RFU, C9orf123 / Fold change vs veh, C9orf123 / RFU, N4BP2L2 / Fold change vs veh, N4BP2L2 / RFU, ARFIP1 / Fold change vs veh, ARFIP1 / RFU, FAM179B / Fold change vs veh, FAM179B / RFU, BCL10 / Fold change vs veh, BCL10 / RFU, UHRF1BP1L / Fold change vs veh, UHRF1BP1L / RFU, BET1 / Fold change vs veh, BET1 / RFU, CNOT2 / Fold change vs veh, CNOT2 / RFU, ZNF268 / Fold change vs veh, ZNF268 / Fold change vs veh, ZNF507 / RFU, DGCR2 / Fold change vs veh, DGCR2 / RFU, WDSUB1 / Fold change vs veh, WDSUB1 / Fold change vs veh, HSP90B1 /// MIR3652 / RFU, ADSS / Fold change vs veh, ADSS / RFU, GK / Fold change vs veh, GK / RFU, ZNF148 / Fold change vs veh, ZNF148 / RFU, TAF9 / Fold change vs veh, TAF9 / RFU, SLC1A5 / Fold change vs veh, SLC1A5 / RFU, SLMO2 / Fold change vs veh, SLMO2 / RFU, ABCC4 / Fold change vs veh, ABCC4 / RFU, LOC101060439 /// RAP1B / Fold change vs veh, LOC101060439 /// RAP1B / RFU, RFX7 / Fold change vs veh, RFX7 / RFU, GTPBP10 / Fold change vs veh, GTPBP10 / RFU, CNEP1R1 / Fold change vs veh, CNEP1R1 / RFU, BIVM-ERCC5 /// ERCC5 / Fold change vs veh, BIVM-ERCC5 /// ERCC5 / RFU, ILF3 / Fold change vs veh, ILF3 / RFU 11762660_at / Fold change /veh 11762660_at / RFU VCAN (11757783_s_at) / Fold change /veh VCAN (11757783_s_at) / RFU DDX43 (11728927_at) / Fold change /veh DDX43 (11728927_at) / RFU KRT8 (11758188_x_at) / Fold change /veh KRT8 (11758188_x_at) / RFU NKD1 (11759106_at) / Fold change /veh NKD1 (11759106_at) / RFU SRD5A1 (11742802_a_at) / Fold change /veh SRD5A1 (11742802_a_at) / RFU TPSAB1 /// TPSB2 (11721975_s_at) / Fold change /veh TPSAB1 /// TPSB2 (11721975_s_at) / RFU GSTM3 (11746129_a_at) / Fold change /veh GSTM3 (11746129_a_at) / RFU IL23R (11737362_x_at) / Fold change /veh IL23R (11737362_x_at) / RFU TMEM51 (11727254_a_at) / Fold change /veh TMEM51 (11727254_a_at) / RFU PIWIL2 (11732686_x_at) / Fold change /veh PIWIL2 (11732686_x_at) / RFU ORM1 (11744905_x_at) / Fold change /veh ORM1 (11744905_x_at) / RFU CCDC152 (11743942_at) / Fold change /veh CCDC152 (11743942_at) / RFU ECM1 (11717891_a_at) / Fold change /veh ECM1 (11717891_a_at) / RFU IL23R (11748794_a_at) / Fold change /veh IL23R (11748794_a_at) / RFU TNFAIP8L3 (11732012_x_at) / Fold change /veh TNFAIP8L3 (11732012_x_at) / RFU MBOAT4 (11741988_at) / Fold change /veh MBOAT4 (11741988_at) / RFU 11764193_at / Fold change /veh 11764193_at / RFU TMEM53 (11763286_at) / Fold change /veh TMEM53 (11763286_at) / RFU MAGEB2 (11727129_at) / Fold change /veh MAGEB2 (11727129_at) / RFU TMEM200A (11744735_a_at) / Fold change /veh TMEM200A (11744735_a_at) / RFU CCDC152 (11751479_a_at) / Fold change /veh CCDC152 (11751479_a_at) / RFU FAM211A (11726209_a_at) / Fold change /veh FAM211A (11726209_a_at) / RFU RGS16 (11746705_a_at) / Fold change /veh RGS16 (11746705_a_at) / RFU VCAN (11755009_s_at) / Fold change /veh VCAN (11755009_s_at) / RFU RHOB (11743442_s_at) / Fold change /veh RHOB (11743442_s_at) / RFU RGS16 (11720943_a_at) / Fold change /veh RGS16 (11720943_a_at) / RFU RGS16 (11720944_at) / Fold change /veh RGS16 (11720944_at) / RFU, VPS4B / Fold change vs veh, VPS4B / RFU, CREB1 / Fold change vs veh, CREB1 / RFU, DNAJC13 / Fold change vs veh, DNAJC13 / RFU, GNAQ / Fold change vs veh, GNAQ / RFU, CDK5R1 / Fold change vs veh, CDK5R1 / RFU, ZRANB3 / Fold change vs veh, ZRANB3 / RFU, CUL4A / Fold change vs veh, CUL4A / RFU, CCNY / Fold change vs veh, CCNY / RFU, UFL1 / Fold change vs veh, UFL1 / RFU, COG3 / Fold change vs veh, COG3 / RFU, DIAPH2 / Fold change vs veh, DIAPH2 / RFU, SKA2 / Fold change vs veh, SKA2 / RFU, AFF3 / Fold change vs veh, AFF3 / RFU, LMF1 / Fold change vs veh, LMF1 / RFU, IPO11 / Fold change vs veh, IPO11 / RFU, DFFB / Fold change vs veh, DFFB / RFU, FOXP1 / Fold change vs veh, FOXP1 / RFU, CARD8 / Fold change vs veh, CARD8 / RFU, STRN3 / Fold change vs veh, STRN3 / RFU, ADK / Fold change vs veh, ADK / RFU, RASSF2 / Fold change vs veh, RASSF2 / RFU, WIPF1 / Fold change vs veh, WIPF1 / RFU, LARP1B / Fold change vs veh, LARP1B / RFU, RASA1 / Fold change vs veh, RASA1 / RFU, RB1 / Fold change vs veh, RB1 / RFU, PPFIA1 / Fold change vs veh, PPFIA1 / RFU, MAT2A / Fold change vs veh, MAT2A / RFU, CCT5 / Fold change vs veh, CCT5 / RFU, WDR92 / Fold change vs veh, WDR92 / RFU, CUX1 / Fold change vs veh, CUX1 / RFU, TTC7A / Fold change vs veh, TTC7A / RFU, TMEM135 / Fold change vs veh, TMEM135 / RFU, DEPTOR / Fold change vs veh, DEPTOR / RFU, CPM / Fold change vs veh, CPM / RFU, DNAJB6 / Fold change vs veh, DNAJB6 / RFU, CACNA2D3 / Fold change vs veh, CACNA2D3 / RFU, DTX4 / Fold change vs veh, DTX4 / RFU, TFCP2 / Fold change vs veh, TFCP2 / RFU, GMCL1 /// GMCL1P1 / Fold change vs veh, GMCL1 /// GMCL1P1 / RFU, AEBP2 / Fold change vs veh, AEBP2 / RFU, SNHG1 /// SNORD22 /// SNORD25 /// SNORD26 /// SNORD27 /// SNORD28 /// SNORD29 /// SNORD31 / Fold change vs veh, SNHG1 /// SNORD22 /// SNORD25 /// SNORD26 /// SNORD27 /// SNORD28 /// SNORD29 /// SNORD31 / Fold change (Aza/veh), C12orf56 (ProbeSet 11735607_a_at) / Fold change (ACY-1035/veh), C12orf56 (ProbeSet 11735607_a_at) / Fold change (Aza/veh), FGFR1OP (ProbeSet 11751329_s_at) / Fold change (ACY-1035/veh), FGFR1OP (ProbeSet 11751329_s_at) / Fold change (Aza/veh), VPS36 (ProbeSet 11739960_a_at) / Fold change (ACY-1035/veh), VPS36 (ProbeSet 11739960_a_at) / RFU SYPL1 (11715823_x_at) / Fold change /veh SYPL1 (11715823_x_at) / RFU IGFBP7 (11715501_s_at) / Fold change /veh IGFBP7 (11715501_s_at) / RFU REEP3 (11722064_at) / Fold change /veh REEP3 (11722064_at) / RFU IGLL1 (11728026_x_at) / Fold change /veh IGLL1 (11728026_x_at): dose or concentration left out as unconfirmed
Details: ProbeSet 11727958_a_at; LIST B

Nc1ccc(-c2cccs2)cc1NC(=O)c1ccc2c(c1)cc(C1CC1)n2CCN1CCOCC1 [ACY-1035]
RFU, ING1: 74.08 RFU
